Measurements: paper PMC9246766 (Pharmaceutical research, 2022)

Target: T1, OCT3 (Homo sapiens, UniProt O75751)
T1 sequence (O75751 1-556): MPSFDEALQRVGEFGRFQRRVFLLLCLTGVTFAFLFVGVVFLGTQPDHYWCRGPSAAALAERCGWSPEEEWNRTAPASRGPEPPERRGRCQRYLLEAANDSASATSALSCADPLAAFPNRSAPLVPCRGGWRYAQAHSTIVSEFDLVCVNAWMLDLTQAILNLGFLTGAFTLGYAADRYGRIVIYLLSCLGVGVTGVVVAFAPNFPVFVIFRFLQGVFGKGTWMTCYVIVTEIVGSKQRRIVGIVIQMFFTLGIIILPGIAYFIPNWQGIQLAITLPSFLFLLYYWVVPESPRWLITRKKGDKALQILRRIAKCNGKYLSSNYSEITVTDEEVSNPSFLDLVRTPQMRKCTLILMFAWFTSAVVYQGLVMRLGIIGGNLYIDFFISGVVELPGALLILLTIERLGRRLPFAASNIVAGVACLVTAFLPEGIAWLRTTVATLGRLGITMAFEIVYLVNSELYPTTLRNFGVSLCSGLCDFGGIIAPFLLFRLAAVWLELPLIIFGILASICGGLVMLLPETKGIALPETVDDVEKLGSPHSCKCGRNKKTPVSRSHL
Experiment: High throughput screen: inhibition of OCT3-mediated ASP+ uptake in HEK-293 cells stably expressing OCT3
Assay type: cell-based
Settings: not given

SMILES | IC50
CC(=O)N1CCN(c2ccc(OCC3COC(Cn4ccnc4)(c4ccc(Cl)cc4Cl)O3)cc2)CC1 (stereo not shown) [ketoconazole] | < 5 µM
C[C@@H](O)[C@H]1C(=O)N2C(C(=O)O)=C(S[C@@H]3CN[C@H](C(=O)N(C)C)C3)[C@H](C)[C@H]12 [meropenem] | 10.8 µM
CC1(C)S[C@@H]2[C@H](NC(=O)[C@H](NC(=O)N3CCNC3=O)c3ccccc3)C(=O)N2[C@H]1C(=O)O [azlocillin] | 9.9 µM
C=C1C[C@@H]2[C@H](CC[C@]3(C)C(=O)CC[C@@H]23)[C@@]2(C)C=CC(=O)C=C12 [exemestane] | < 5 µM
Cc1c(OCC(F)(F)F)ccnc1C[S+]([O-])c1nc2ccccc2[nH]1 (stereo not shown) [lansoprazole] | < 5 µM
O=C(O)c1ccccc1Nc1cccc(C(F)(F)F)c1 [flufenamic acid] | 13 µM
C=C[C@H]1C[N@@]2CC[C@H]1C[C@H]2[C@H](O)c1ccnc2ccc(OC)cc12 [quinine] | < 5 µM
CCC1=C(C)CN(C(=O)NCCc2ccc(S(=O)(=O)NC(=O)N[C@H]3CC[C@H](C)CC3)cc2)C1=O [glimepiride] | < 5 µM
C[C@]12C=CC(=O)C=C1CC[C@@H]1[C@@H]2[C@@H](O)C[C@@]2(C)[C@H]1CC[C@]2(O)C(=O)CO [prednisolone] | 9.6 µM
Cc1oncc1C(=O)Nc1ccc(C(F)(F)F)cc1 [leflunomide] | 19.6 µM
C[C@H]1[C@H](NC(=O)/C(=N\OC(C)(C)C(=O)O)c2csc(N)n2)C(=O)N1S(=O)(=O)O [aztreonam] | < 5 µM
COc1ccc2[nH]c([S+]([O-])Cc3ncc(C)c(OC)c3C)nc2c1 (stereo not shown) [omeprazole] | 11.2 µM
CC(=O)S[C@@H]1CC2=CC(=O)CC[C@]2(C)[C@H]2CC[C@@]3(C)[C@@H](CC[C@@]34CCC(=O)O4)[C@H]12 [spironolactone] | < 5 µM
O=C1CCc2cc(OCCCCc3nnnn3C3CCCCC3)ccc2N1 [cilostazol] | < 5 µM

Same assay, conditions: HEK293

SMILES | inhibition at 20 µM
CC(=O)N1CCN(c2ccc(OCC3COC(Cn4ccnc4)(c4ccc(Cl)cc4Cl)O3)cc2)CC1 (stereo not shown) [ketoconazole] | 93.4%
C[C@@H](O)[C@H]1C(=O)N2C(C(=O)O)=C(S[C@@H]3CN[C@H](C(=O)N(C)C)C3)[C@H](C)[C@H]12 [meropenem] | 65%
CC1(C)S[C@@H]2[C@H](NC(=O)[C@H](NC(=O)N3CCNC3=O)c3ccccc3)C(=O)N2[C@H]1C(=O)O [azlocillin] | 66.9%
C=C1C[C@@H]2[C@H](CC[C@]3(C)C(=O)CC[C@@H]23)[C@@]2(C)C=CC(=O)C=C12 [exemestane] | 94.5%
Cc1c(OCC(F)(F)F)ccnc1C[S+]([O-])c1nc2ccccc2[nH]1 (stereo not shown) [lansoprazole] | 87.2%
O=C(O)c1ccccc1Nc1cccc(C(F)(F)F)c1 [flufenamic acid] | 60.6%
C=C[C@H]1C[N@@]2CC[C@H]1C[C@H]2[C@H](O)c1ccnc2ccc(OC)cc12 [quinine] | 90.6%
CCC1=C(C)CN(C(=O)NCCc2ccc(S(=O)(=O)NC(=O)N[C@H]3CC[C@H](C)CC3)cc2)C1=O [glimepiride] | 87.7%
C[C@]12C=CC(=O)C=C1CC[C@@H]1[C@@H]2[C@@H](O)C[C@@]2(C)[C@H]1CC[C@]2(O)C(=O)CO [prednisolone] | 67.5%
Cc1oncc1C(=O)Nc1ccc(C(F)(F)F)cc1 [leflunomide] | 50.5%
C[C@H]1[C@H](NC(=O)/C(=N\OC(C)(C)C(=O)O)c2csc(N)n2)C(=O)N1S(=O)(=O)O [aztreonam] | 87.1%
COc1ccc2[nH]c([S+]([O-])Cc3ncc(C)c(OC)c3C)nc2c1 (stereo not shown) [omeprazole] | 64.1%
CC(=O)S[C@@H]1CC2=CC(=O)CC[C@]2(C)[C@H]2CC[C@@]3(C)[C@@H](CC[C@@]34CCC(=O)O4)[C@H]12 [spironolactone] | 82.8%
O=C1CCc2cc(OCCCCc3nnnn3C3CCCCC3)ccc2N1 [cilostazol] | 93.8%

Target: T1, OCT3
Experiment: IC50 determination against OCT3-mediated ASP+ uptake in HEK-293 cells overexpressing OCT3
Assay type: cell-based
Settings: not given

SMILES | IC50
CC(=O)N1CCN(c2ccc(OCC3COC(Cn4ccnc4)(c4ccc(Cl)cc4Cl)O3)cc2)CC1 (stereo not shown) [ketoconazole] | 0.42 µM
C=C[C@H]1C[N@@]2CC[C@H]1C[C@H]2[C@H](O)c1ccnc2ccc(OC)cc12 [quinine] | 6.6 µM

System: not given
Experiment: not given
Settings: cardiovascular / CNS related; ref FDA product insert; cited from earlier work

SMILES | FDA product insert: warnings, precautions and major adverse reactions
C[C@@H](O)[C@H]1C(=O)N2C(C(=O)O)=C(S[C@@H]3CN[C@H](C(=O)N(C)C)C3)[C@H](C)[C@H]12 [meropenem] | Warnings and precautions: Seizures and other adverse CNS experiences have been reported during treatment.
C=C1C[C@@H]2[C@H](CC[C@]3(C)C(=O)CC[C@@H]23)[C@@]2(C)C=CC(=O)C=C12 [exemestane] | No warnings and precautions regarding to cardiovascular, CNS
Cc1c(OCC(F)(F)F)ccnc1C[S+]([O-])c1nc2ccccc2[nH]1 (stereo not shown) [lansoprazole] | No warnings and precautions regarding to cardiovascular, CNS
C=C[C@H]1C[N@@]2CC[C@H]1C[C@H]2[C@H](O)c1ccnc2ccc(OC)cc12 [quinine] | warnings and precautions related to cardiovascular side-effects
CCC1=C(C)CN(C(=O)NCCc2ccc(S(=O)(=O)NC(=O)N[C@H]3CC[C@H](C)CC3)cc2)C1=O [glimepiride] | No warnings and precautions regarding to cardiovascular, CNS. However, oral hypoglycemic reagents are known to increase cardiovascular mortality which may be due to hypoglycemia incidence.
Cc1oncc1C(=O)Nc1ccc(C(F)(F)F)cc1 [leflunomide] | No warnings and precautions regarding to cardiovascular, CNS
C[C@H]1[C@H](NC(=O)/C(=N\OC(C)(C)C(=O)O)c2csc(N)n2)C(=O)N1S(=O)(=O)O [aztreonam] | warnings and precautions related to cardiovascular side-effects
COc1ccc2[nH]c([S+]([O-])Cc3ncc(C)c(OC)c3C)nc2c1 (stereo not shown) [omeprazole] | No warnings and precautions regarding to cardiovascular, CNS
CC(=O)S[C@@H]1CC2=CC(=O)CC[C@]2(C)[C@H]2CC[C@@]3(C)[C@@H](CC[C@@]34CCC(=O)O4)[C@H]12 [spironolactone] | No warnings and precautions regarding to cardiovascular, CNS

Same assay, conditions: cardiovascular / CNS related; ref FDA product insert; listed as Aztreonam; cited from earlier work

SMILES | FDA product insert: warnings, precautions and major adverse reactions
C[C@H]1[C@H](NC(=O)/C(=N\OC(C)(C)C(=O)O)c2csc(N)n2)C(=O)N1S(=O)(=O)O [aztreonam] | Adverse reaction: Cardiovascular—hypotension, transient ECG changes (ventricular bigeminy and PVC), flushing. Nervous System—seizure, confusion, vertigo, paresthesia, insomnia, dizziness.

Same assay, conditions: cardiovascular / CNS related; ref FDA product insert; listed as Quinine; cited from earlier work

SMILES | FDA product insert: warnings, precautions and major adverse reactions
C=C[C@H]1C[N@@]2CC[C@H]1C[C@H]2[C@H](O)c1ccnc2ccc(OC)cc12 [quinine] | Warnings and precautions: QT prolongation and ventricular arrhythmias. Avoid concomitant use with drugs known to prolong QT interval.

Same assay, conditions: ref Pubmed ID of Table SII; cited from earlier work

SMILES | Neurological Effects (from Literature)
Cc1c(OCC(F)(F)F)ccnc1C[S+]([O-])c1nc2ccccc2[nH]1 (stereo not shown) [lansoprazole] | Increase the risk of dementia
C[C@]12C=CC(=O)C=C1CC[C@@H]1[C@@H]2[C@@H](O)C[C@@]2(C)[C@H]1CC[C@]2(O)C(=O)CO [prednisolone] | Behavirol effects
COc1ccc2[nH]c([S+]([O-])Cc3ncc(C)c(OC)c3C)nc2c1 (stereo not shown) [omeprazole] | Increase the risk of dementia
CC(=O)S[C@@H]1CC2=CC(=O)CC[C@]2(C)[C@H]2CC[C@@]3(C)[C@@H](CC[C@@]34CCC(=O)O4)[C@H]12 [spironolactone] | Neurotoxicity, lipophilic and cross the blood brain barrier
O=C1CCc2cc(OCCCCc3nnnn3C3CCCCC3)ccc2N1 [cilostazol] | Cilostazol attenuated blood–brain barrier leakage, Cilostazol (CSZ) was recently found to suppress the progression of cognitive decline in patients with stable AD receiving acetylcholinesterase inhibitors

Same assay, conditions: stated in discussion; ref Table SII, 60; cited from earlier work

SMILES | Neurological side effects
C[C@@H](O)[C@H]1C(=O)N2C(C(=O)O)=C(S[C@@H]3CN[C@H](C(=O)N(C)C)C3)[C@H](C)[C@H]12 [meropenem] | neurological side effects
C[C@H]1[C@H](NC(=O)/C(=N\OC(C)(C)C(=O)O)c2csc(N)n2)C(=O)N1S(=O)(=O)O [aztreonam] | neurological side effects

System: not given
Experiment: not given
Settings: total maximum plasma concentration; ref http://www.micromedexsolutions.com/; cited from earlier work

SMILES | Cmax
CC(=O)N1CCN(c2ccc(OCC3COC(Cn4ccnc4)(c4ccc(Cl)cc4Cl)O3)cc2)CC1 (stereo not shown) [ketoconazole] | 1900 nM
C[C@@H](O)[C@H]1C(=O)N2C(C(=O)O)=C(S[C@@H]3CN[C@H](C(=O)N(C)C)C3)[C@H](C)[C@H]12 [meropenem] | 256000 nM
CC1(C)S[C@@H]2[C@H](NC(=O)[C@H](NC(=O)N3CCNC3=O)c3ccccc3)C(=O)N2[C@H]1C(=O)O [azlocillin] | 17300 nM
C=C1C[C@@H]2[C@H](CC[C@]3(C)C(=O)CC[C@@H]23)[C@@]2(C)C=CC(=O)C=C12 [exemestane] | 1400 nM
Cc1c(OCC(F)(F)F)ccnc1C[S+]([O-])c1nc2ccccc2[nH]1 (stereo not shown) [lansoprazole] | 2900 nM
O=C(O)c1ccccc1Nc1cccc(C(F)(F)F)c1 [flufenamic acid] | 24200 nM
CCC1=C(C)CN(C(=O)NCCc2ccc(S(=O)(=O)NC(=O)N[C@H]3CC[C@H](C)CC3)cc2)C1=O [glimepiride] | 1200 nM
C[C@]12C=CC(=O)C=C1CC[C@@H]1[C@@H]2[C@@H](O)C[C@@]2(C)[C@H]1CC[C@]2(O)C(=O)CO [prednisolone] | 2900 nM
Cc1oncc1C(=O)Nc1ccc(C(F)(F)F)cc1 [leflunomide] | 233000 nM
C[C@H]1[C@H](NC(=O)/C(=N\OC(C)(C)C(=O)O)c2csc(N)n2)C(=O)N1S(=O)(=O)O [aztreonam] | 585000 nM
COc1ccc2[nH]c([S+]([O-])Cc3ncc(C)c(OC)c3C)nc2c1 (stereo not shown) [omeprazole] | 4200 nM
CC(=O)S[C@@H]1CC2=CC(=O)CC[C@]2(C)[C@H]2CC[C@@]3(C)[C@@H](CC[C@@]34CCC(=O)O4)[C@H]12 [spironolactone] | 1100 nM
O=C1CCc2cc(OCCCCc3nnnn3C3CCCCC3)ccc2N1 [cilostazol] | 2100 nM

Target: T1, OCT3
Experiment: Predicted DDI potential: ratio of plasma CMAX (total or unbound) to predicted OCT3 IC50
Settings: unbound plasma CMAX over predicted OCT3 IC50

SMILES | Unbound CMAX/IC50
C[C@@H](O)[C@H]1C(=O)N2C(C(=O)O)=C(S[C@@H]3CN[C@H](C(=O)N(C)C)C3)[C@H](C)[C@H]12 [meropenem] | 23.3
CC1(C)S[C@@H]2[C@H](NC(=O)[C@H](NC(=O)N3CCNC3=O)c3ccccc3)C(=O)N2[C@H]1C(=O)O [azlocillin] | 1.23
O=C(O)c1ccccc1Nc1cccc(C(F)(F)F)c1 [flufenamic acid] | 0.19

System: not given
Experiment: not given
Settings: plasma protein binding used for unbound CMAX; source not given; cited from earlier work

SMILES | Protein binding
CC(=O)N1CCN(c2ccc(OCC3COC(Cn4ccnc4)(c4ccc(Cl)cc4Cl)O3)cc2)CC1 (stereo not shown) [ketoconazole] | 91%
CC1(C)S[C@@H]2[C@H](NC(=O)[C@H](NC(=O)N3CCNC3=O)c3ccccc3)C(=O)N2[C@H]1C(=O)O [azlocillin] | 30%
C=C1C[C@@H]2[C@H](CC[C@]3(C)C(=O)CC[C@@H]23)[C@@]2(C)C=CC(=O)C=C12 [exemestane] | 90%
Cc1c(OCC(F)(F)F)ccnc1C[S+]([O-])c1nc2ccccc2[nH]1 (stereo not shown) [lansoprazole] | 97%
O=C(O)c1ccccc1Nc1cccc(C(F)(F)F)c1 [flufenamic acid] | 90%
CCC1=C(C)CN(C(=O)NCCc2ccc(S(=O)(=O)NC(=O)N[C@H]3CC[C@H](C)CC3)cc2)C1=O [glimepiride] | 99%
C[C@]12C=CC(=O)C=C1CC[C@@H]1[C@@H]2[C@@H](O)C[C@@]2(C)[C@H]1CC[C@]2(O)C(=O)CO [prednisolone] | 70%
Cc1oncc1C(=O)Nc1ccc(C(F)(F)F)cc1 [leflunomide] | 99.3%
C[C@H]1[C@H](NC(=O)/C(=N\OC(C)(C)C(=O)O)c2csc(N)n2)C(=O)N1S(=O)(=O)O [aztreonam] | 56%
COc1ccc2[nH]c([S+]([O-])Cc3ncc(C)c(OC)c3C)nc2c1 (stereo not shown) [omeprazole] | 95%
CC(=O)S[C@@H]1CC2=CC(=O)CC[C@]2(C)[C@H]2CC[C@@]3(C)[C@@H](CC[C@@]34CCC(=O)O4)[C@H]12 [spironolactone] | 93%
O=C1CCc2cc(OCCCCc3nnnn3C3CCCCC3)ccc2N1 [cilostazol] | 95%
